Test [1] can be described thus: Luminescence Cell-Based Dose Confirmation HTS to Identify Activators of 5'UTR Stem-Loop Driven Alpha-Synuclein mRNA Translation in H4 Neuroglioblastoma Cells. [Related pubchem assays: 1829 (Project Summary), 1814 (Primary HTS)]. Format: functional.
Test [2] can be described thus: Luminescence Cell-Based Dose Response HTS to Identify Activators of Luciferase Translation or Activity in H4 […] Cells. [Related pubchem assays: 1829 (Project Summary), 1814 (Primary HTS)]. Format: functional.
In a further test the test system is H4. Nature of the test: Luminescence Cell-Based Dose Response HTS to Identify Activators of 5'UTR Stem-Loop Driven Prion Protein mRNA Translation in H4 Neuroglioblastoma Cells. [Related pubchem assays: 1829 (Project Summary), 1814 (Primary HTS)]. It is filed as functional. The note with it: Homo sapiens.
The target in test [3] is T1, Heat shock factor protein 1 (Mus musculus, UniProt P38532).
T1 sequence (P38532 whole entry): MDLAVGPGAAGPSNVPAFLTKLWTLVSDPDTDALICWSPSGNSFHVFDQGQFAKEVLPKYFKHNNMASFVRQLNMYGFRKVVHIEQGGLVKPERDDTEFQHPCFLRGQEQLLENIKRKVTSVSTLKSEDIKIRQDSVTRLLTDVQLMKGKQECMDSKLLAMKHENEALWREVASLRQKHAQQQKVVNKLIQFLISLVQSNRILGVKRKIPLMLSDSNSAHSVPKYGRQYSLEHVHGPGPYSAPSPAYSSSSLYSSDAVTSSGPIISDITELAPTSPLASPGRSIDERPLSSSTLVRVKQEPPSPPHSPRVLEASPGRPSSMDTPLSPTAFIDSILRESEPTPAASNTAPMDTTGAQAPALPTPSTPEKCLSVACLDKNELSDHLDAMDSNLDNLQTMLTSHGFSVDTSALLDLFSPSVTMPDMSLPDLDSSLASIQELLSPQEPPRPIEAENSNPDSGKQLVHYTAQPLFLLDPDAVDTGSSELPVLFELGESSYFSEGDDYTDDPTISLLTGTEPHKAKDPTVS
As to the kind of experiment: decrease of HSF1-responsive luciferase luminescence – cell-based, NIH3T3, dose retest, confirmation (AID 2382).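 Note: NIH3T3 fibroblasts with HSF1-driven luciferase reporter stressed by proteasome inhibitor MG132; luminescence from HSF1-driven luciferase expression after 8 hours of MG132 stress.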 Format: functional.

Test [4] deals with T1, Heat shock factor protein 1. Nature of the test: enhancement of HSF1-driven luciferase signal – cell-based, NIH3T3, luminescence, dose retest, confirmation (AID 435004).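 Note: stress induced by proteasome inhibitor MG132 added 30 min after compound; luciferase reporter driven by HSF1 response element in NIH3T3 cells; actives raise luminescence as potentiators of the MG132 stress response.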 Format: functional.
For another test, the target named is T2, Cytochrome P450 1A2 (Homo sapiens, UniProt P05177).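 Note: PubChem cytochrome P450 panel assay, CYP1A2 panel member.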
T2 sequence (P05177 whole entry): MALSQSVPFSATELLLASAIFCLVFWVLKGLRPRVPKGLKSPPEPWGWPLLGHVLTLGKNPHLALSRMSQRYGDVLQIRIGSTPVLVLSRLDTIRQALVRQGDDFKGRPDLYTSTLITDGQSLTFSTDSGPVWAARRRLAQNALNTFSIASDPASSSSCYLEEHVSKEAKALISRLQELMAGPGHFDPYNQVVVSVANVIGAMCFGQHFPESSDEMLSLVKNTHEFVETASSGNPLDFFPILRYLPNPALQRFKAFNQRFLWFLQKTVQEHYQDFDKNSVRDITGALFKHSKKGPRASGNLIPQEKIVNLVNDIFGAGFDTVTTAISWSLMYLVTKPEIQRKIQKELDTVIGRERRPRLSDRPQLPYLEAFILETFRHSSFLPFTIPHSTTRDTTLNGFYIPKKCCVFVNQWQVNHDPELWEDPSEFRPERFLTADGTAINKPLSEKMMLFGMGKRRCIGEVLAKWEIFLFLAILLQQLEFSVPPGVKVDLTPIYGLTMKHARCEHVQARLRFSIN

The next test has as its target Cytochrome P450 3A4 (Homo sapiens, UniProt P08684).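 Note: CYP3A4 tested as one member of a cytochrome P450 panel screen.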
In test [5] the target is T3, Rac GTPase-activating protein 1 (Homo sapiens, UniProt Q9H0H5).
T3 sequence (Q9H0H5 whole entry): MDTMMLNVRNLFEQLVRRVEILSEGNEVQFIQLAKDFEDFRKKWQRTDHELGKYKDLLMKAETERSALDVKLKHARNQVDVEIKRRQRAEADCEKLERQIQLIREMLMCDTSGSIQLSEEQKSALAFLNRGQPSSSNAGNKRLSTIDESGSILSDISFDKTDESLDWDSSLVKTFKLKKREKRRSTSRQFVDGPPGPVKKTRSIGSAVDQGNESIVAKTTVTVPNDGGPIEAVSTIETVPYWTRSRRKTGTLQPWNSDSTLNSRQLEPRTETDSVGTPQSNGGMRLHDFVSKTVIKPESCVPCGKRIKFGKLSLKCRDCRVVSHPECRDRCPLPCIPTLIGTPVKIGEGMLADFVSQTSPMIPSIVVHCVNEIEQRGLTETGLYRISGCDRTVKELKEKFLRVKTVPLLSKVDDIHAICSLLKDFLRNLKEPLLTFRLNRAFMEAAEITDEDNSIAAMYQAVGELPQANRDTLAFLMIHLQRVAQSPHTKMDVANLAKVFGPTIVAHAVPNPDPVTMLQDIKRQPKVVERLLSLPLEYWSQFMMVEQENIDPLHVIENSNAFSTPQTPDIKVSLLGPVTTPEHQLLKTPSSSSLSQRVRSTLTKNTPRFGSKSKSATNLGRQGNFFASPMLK
Nature of the test: blockers of MgcRacGAP-driven Rac1 GTP hydrolysis – biochemical, ADP Hunter fluorescence, primary and confirmatory, confirmation (AID 624330). Format: functional.

Test [6] in a line: viability of uninfected HEp-2 cells – cell-based, HTS, cytotoxicity control for RSV inhibitor project, dose response (AID 2410). The note with it: human respiratory syncytial virus. It is filed as functional.
Test [7] has as its target T4, Replicative DNA helicase DnaB (Mycobacterium tuberculosis, UniProt P9WMR3).
T4 sequence (P9WMR3 whole entry): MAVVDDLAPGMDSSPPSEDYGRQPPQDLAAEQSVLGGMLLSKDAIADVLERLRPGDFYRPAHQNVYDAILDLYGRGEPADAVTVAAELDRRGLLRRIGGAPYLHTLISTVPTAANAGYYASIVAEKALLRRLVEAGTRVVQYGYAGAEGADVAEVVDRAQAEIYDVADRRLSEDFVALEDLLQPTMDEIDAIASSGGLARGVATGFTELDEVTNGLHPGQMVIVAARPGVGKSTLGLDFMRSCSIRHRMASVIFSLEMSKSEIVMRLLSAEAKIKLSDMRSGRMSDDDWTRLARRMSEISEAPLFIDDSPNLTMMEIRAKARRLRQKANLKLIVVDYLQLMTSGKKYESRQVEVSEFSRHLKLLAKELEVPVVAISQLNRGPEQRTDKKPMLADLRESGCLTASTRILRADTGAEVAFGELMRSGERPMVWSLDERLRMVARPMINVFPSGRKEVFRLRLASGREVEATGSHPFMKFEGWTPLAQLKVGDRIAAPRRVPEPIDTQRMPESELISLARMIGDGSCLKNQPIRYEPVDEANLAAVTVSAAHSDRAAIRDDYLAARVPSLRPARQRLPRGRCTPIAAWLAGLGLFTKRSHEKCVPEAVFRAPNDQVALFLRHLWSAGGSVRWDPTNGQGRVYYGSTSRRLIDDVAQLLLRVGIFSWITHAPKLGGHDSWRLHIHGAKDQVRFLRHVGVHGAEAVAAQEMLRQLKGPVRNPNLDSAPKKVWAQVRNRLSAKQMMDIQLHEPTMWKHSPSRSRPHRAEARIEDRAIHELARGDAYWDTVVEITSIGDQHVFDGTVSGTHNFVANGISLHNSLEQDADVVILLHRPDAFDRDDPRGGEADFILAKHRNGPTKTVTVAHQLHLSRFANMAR
Nature of the test: DnaB intein splicing inhibitors, dose response, biochemical, cell-free fluorescence (AID 449749). Format: functional.

A further test has as its target T5, Protein RecA (Mycobacterium tuberculosis, UniProt P9WHJ3).
T5 sequence (P9WHJ3 whole entry): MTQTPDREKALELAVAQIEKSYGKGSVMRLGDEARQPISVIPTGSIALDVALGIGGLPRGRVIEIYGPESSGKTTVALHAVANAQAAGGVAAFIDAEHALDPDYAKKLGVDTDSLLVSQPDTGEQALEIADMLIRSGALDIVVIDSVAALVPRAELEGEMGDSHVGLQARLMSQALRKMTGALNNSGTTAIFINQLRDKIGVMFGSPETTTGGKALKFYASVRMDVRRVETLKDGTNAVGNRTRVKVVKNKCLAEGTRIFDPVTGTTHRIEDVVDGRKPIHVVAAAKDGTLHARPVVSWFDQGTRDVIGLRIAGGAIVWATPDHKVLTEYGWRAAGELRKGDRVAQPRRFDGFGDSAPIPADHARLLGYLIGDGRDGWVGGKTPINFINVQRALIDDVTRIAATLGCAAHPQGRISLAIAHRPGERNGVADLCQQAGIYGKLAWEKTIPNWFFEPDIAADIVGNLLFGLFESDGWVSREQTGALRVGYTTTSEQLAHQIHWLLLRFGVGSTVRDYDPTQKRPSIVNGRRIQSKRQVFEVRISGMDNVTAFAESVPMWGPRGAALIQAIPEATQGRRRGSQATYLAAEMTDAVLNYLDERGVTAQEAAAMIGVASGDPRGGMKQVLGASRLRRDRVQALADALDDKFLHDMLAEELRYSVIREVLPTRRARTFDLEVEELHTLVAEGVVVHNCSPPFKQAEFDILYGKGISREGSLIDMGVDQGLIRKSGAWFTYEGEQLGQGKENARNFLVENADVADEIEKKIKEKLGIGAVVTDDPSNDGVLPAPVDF
As to the kind of experiment: Fluorescence Cell-Free Homogeneous Dose Retest to Identify Inhibitors of RecA-Intein Splicing Activity. [Related pubchem assays (depositor defined):AID2097, AID2223, AID489010, AID492950]. It is filed as functional.

For another test, the target named is Paired box protein Pax-8 (Homo sapiens, UniProt Q06710). As to the kind of experiment: PAX8 transcriptional activity inhibition in RMG-I – RMG-I cells, luciferase, cherry-pick, dose response (AID 687027).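 Note: luciferase reporter driven by Pax8 target thyroperoxidase promoter measured by SteadyGlo luminescence.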 Format: functional, cell-based.
Paired box protein Pax-8, sequence (Q06710 whole entry): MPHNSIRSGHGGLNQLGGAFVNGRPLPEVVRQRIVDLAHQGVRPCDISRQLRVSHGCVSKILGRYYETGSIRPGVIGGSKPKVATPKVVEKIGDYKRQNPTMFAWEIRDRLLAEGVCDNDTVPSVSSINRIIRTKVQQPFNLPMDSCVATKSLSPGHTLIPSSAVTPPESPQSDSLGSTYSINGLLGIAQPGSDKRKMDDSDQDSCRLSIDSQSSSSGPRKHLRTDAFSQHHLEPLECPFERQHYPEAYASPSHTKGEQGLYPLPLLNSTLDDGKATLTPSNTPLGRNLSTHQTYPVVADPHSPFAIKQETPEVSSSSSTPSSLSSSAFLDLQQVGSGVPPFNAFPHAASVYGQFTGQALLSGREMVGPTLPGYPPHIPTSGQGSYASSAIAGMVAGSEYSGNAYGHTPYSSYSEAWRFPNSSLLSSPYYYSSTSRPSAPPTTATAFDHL

Calls of active or inactive are those of the source. Bounds are passed on as bounds.

Cytochrome P450 3A4, sequence (P08684 whole entry): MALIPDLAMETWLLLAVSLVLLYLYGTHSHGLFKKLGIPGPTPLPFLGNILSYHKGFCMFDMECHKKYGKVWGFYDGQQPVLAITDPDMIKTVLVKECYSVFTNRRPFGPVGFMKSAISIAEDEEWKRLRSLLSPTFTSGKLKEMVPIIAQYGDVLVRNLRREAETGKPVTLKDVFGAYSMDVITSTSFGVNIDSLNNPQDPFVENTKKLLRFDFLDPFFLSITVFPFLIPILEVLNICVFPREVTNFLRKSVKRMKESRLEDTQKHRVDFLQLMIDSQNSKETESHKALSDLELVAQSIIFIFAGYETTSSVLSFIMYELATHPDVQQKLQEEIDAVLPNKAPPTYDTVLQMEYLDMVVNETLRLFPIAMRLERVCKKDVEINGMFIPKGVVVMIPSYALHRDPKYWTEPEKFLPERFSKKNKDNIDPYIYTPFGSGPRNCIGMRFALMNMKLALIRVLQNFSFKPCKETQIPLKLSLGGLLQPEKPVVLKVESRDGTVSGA

Usually EC50 stands for the concentration that produces a half-maximal response. Turning to `CSc1ccc(N2C(=O)NC3(CCCCC3)C2=O)cc1`, the EC50 in test [1] is 20.4 µM (active); in test [2], 96.3 µM (active); in the test on H4, 19.7 µM (active).
As to `O=C(CSCc1ccccc1)Nc1ccc2c(c1)OCO2`, the EC50 was 26 µM (active) in test [1], 2.27 µM (inconclusive) in test [2] and 18.6 µM (active) in the test on H4.
Regarding `Oc1ccccc1N1CCN(c2ncnc3scc(-c4ccc(F)cc4)c23)CC1`, the EC50 in [3] is > 195 µM (not active).
In the case of `CCOc1ccc(NC(=O)C2CC(=O)N3CCCN=C3S2)cc1` (stereo not given), the EC50 in test [4] was > 260 µM (inactive).
Turning to `COc1cc(/C=N/N2CCN(C3c4ccccc4-c4ccccc43)CC2)cc(OC)c1OC`, the EC50 in [4] is > 260 µM (inactive).
For the compound `COc1ccc([C@@H]2[C@@H]3C(=O)N(C(C)(C)C)C(=O)[C@@H]3[C@]3(Cc4ccccc4)C(=O)N(c4cccc(C)c4)C(=O)N23)cc1`, the EC50 (in test [1]; in test [2]; in the test on H4) was > 120 µM (not active) in each case.
Regarding `C=CCn1c(C)cc(C(=O)COC(=O)CNC(=O)c2ccccc2)c1C`, in test [3], the EC50 is 2.44 µM (active).
As usually defined, the AC50 is the midpoint of the concentration-response curve, whichever way the signal moves. Take `COc1ccccc1NC(=O)[C@H](COCc1ccccc1)NC(=O)OC(C)(C)C`: the results for the AC50 at Cytochrome P450 1A2 and at Cytochrome P450 3A4 were 25.1 µM (inconclusive) and 39.8 µM (inconclusive), respectively. In [3], the EC50 is reported as > 195 µM (not active).
`CC1=CC(C)=Nc2cc(C)ccc2N1`: the values for the EC50 (in [1]; in test [2]; in the test with H4) were 33.3 µM (active), > 60 µM (not active) and 41.1 µM (active), respectively.
For the compound `CCOc1ccc(NC(=O)c2cccc3ccccc23)cc1`, the values for the EC50 (in [1]; in test [2]; with H4) were 72.3 µM (active), 11.5 µM (active) and > 120 µM (not active), respectively.
The corresponding values for `CC(C)(C)c1cc(-n2ccnc2)n2ncc(-c3ccc(Cl)cc3)c2n1` are > 120 µM (not active), 13.7 µM (active) and 78.9 µM (active).
For `CCc1ccc(NC(=O)c2cnc3scc(C)n3c2=O)cc1`, the EC50 is 9.98 µM (active) in test [1], 17.6 µM (active) in [2] and 12.6 µM (active) in the test on H4.
`CCCNC(=O)NC1C(NC(=O)NCCC)N(C)C(=O)N1C` (stereo not given): in [3], the EC50 is > 195 µM (not active).
With `COc1cccc(-n2c(SCC(=O)NCC3CCCO3)nc3c(c2=O)SCC3)c1` (stereo not given), the EC50 in test [3] is listed as > 195 µM (not active).
The IC50 is the concentration at which inhibition is half-maximal. In general, CC50 refers to the concentration giving 50% cytotoxicity. On to `Cc1cc(O)ccc1Nc1nc(-c2cccs2)cs1`, for which the IC50 in test [5] is 46.5 µM (active). Also, in test [6], the CC50 was 21 µM (active). Moreover, the AC50 in test [7] was 13.2 µM (active). Also, the EC50 at Protein RecA is 11.5 µM (active).
For the compound `Oc1onc(-c2ccccc2)c1-c1ccccc1`, the EC50 in test [3] is > 195 µM (not active).
For `O=C(CSc1ncccn1)NCCc1ccccc1`, the EC50 in test [3] is given as > 195 µM (not active).
As to `Cc1ccc2c(c1)c1cccc3c1n2CCN3CCC(N)=O`, the EC50 is 1.71 µM (active) in test [1], > 120 µM (not active) in test [2] and 9.21 µM (active) in the test on H4.
Turning to `COc1ccc(C(c2nnnn2Cc2ccccc2)N2CCC(n3c(O)nc4ccccc43)CC2)cc1` (stereo not given), the AC50 on Paired box protein Pax-8 was 6.91 µM (active).
Regarding `Cc1ccc(S(=O)(=O)n2ccc(=O)[nH]2)cc1`, the EC50 in test [3] is given as > 195 µM (not active).
For the compound `CC(=O)c1ccc(NCC2COc3ccccc3O2)c([N+](=O)[O-])c1` (stereo not given), in test [6], the CC50 is > 50 µM (active).
Regarding `Cc1ccc(NC(=O)CN(C)C2CCCCC2)cc1Cl`, the IC50 in [5] was 152 µM (active). For the same compound, the EC50 in [3] was > 195 µM (not active).
Consider `CN(C)c1ccc(/C=N/NC(=O)c2ccccc2Cl)cc1`, for which, in test [3], the EC50 is reported as > 195 µM (not active).
